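These data come from cells grown in 96-well plates and exposed to compound for 48 hours at five concentrations. TGI: total growth inhibition.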
What was measured:
Assay in all cases: NCI-60 cell line screen, 48 h
IGROV1 ovarian = test system: IGROV1 ovarian
UACC-62 melanoma = test system: UACC-62 melanoma
SF-295 CNS = test system: SF-295 CNS
U251 CNS = test system: U251 CNS
HCT-15 colon = test system: HCT-15 colon
OVCAR-3 ovarian = test system: OVCAR-3 ovarian
NCI-H23 lung = test system: NCI-H23 lung
SF-268 CNS = test system: SF-268 CNS
M14 melanoma = test system: M14 melanoma
UACC-257 melanoma = test system: UACC-257 melanoma
MALME-3M melanoma = test system: MALME-3M melanoma
MOLT-4 leukemia = test system: MOLT-4 leukemia
RXF 393 renal = test system: RXF 393 renal
MCF7 breast = test system: MCF7 breast
TK-10 renal = test system: TK-10 renal
MDA-MB-231 breast = test system: MDA-MB-231 breast
T-47D breast = test system: T-47D breast
OVCAR-4 ovarian = test system: OVCAR-4 ovarian
CAKI-1 renal = test system: CAKI-1 renal
HOP-92 NSCLC = test system: HOP-92 NSCLC
SK-MEL-5 melanoma = test system: SK-MEL-5 melanoma
SK-OV-3 ovarian = test system: SK-OV-3 ovarian
786-0 renal = test system: 786-0 renal
NCI/ADR-RES ovarian = test system: NCI/ADR-RES ovarian
BT-549 breast = test system: BT-549 breast
NCI-H226 lung = test system: NCI-H226 lung
HT29 colon = test system: HT29 colon
OVCAR-5 ovarian = test system: OVCAR-5 ovarian
RPMI-8226 leukemia = test system: RPMI-8226 leukemia
OVCAR-8 ovarian = test system: OVCAR-8 ovarian
PC-3 prostate = test system: PC-3 prostate
SK-MEL-28 melanoma = test system: SK-MEL-28 melanoma
SK-MEL-2 melanoma = test system: SK-MEL-2 melanoma
A549 NSCLC = test system: A549 NSCLC
HCC-2998 colon = test system: HCC-2998 colon
ACHN renal = test system: ACHN renal
SNB-19 CNS = test system: SNB-19 CNS
DU-145 prostate = test system: DU-145 prostate
HS 578T breast = test system: HS 578T breast
HCT-116 colon = test system: HCT-116 colon
SNB-75 CNS = test system: SNB-75 CNS
NCI-H460 lung = test system: NCI-H460 lung
SN12C renal = test system: SN12C renal
UO-31 renal = test system: UO-31 renal
HOP-62 NSCLC = test system: HOP-62 NSCLC
HL-60(TB) leukemia = test system: HL-60(TB) leukemia
K-562 leukemia = test system: K-562 leukemia
SR leukemia = test system: SR leukemia
EKVX NSCLC = test system: EKVX NSCLC
LOX IMVI melanoma = test system: LOX IMVI melanoma
CCRF-CEM leukemia = test system: CCRF-CEM leukemia
SF-539 CNS = test system: SF-539 CNS
COLO 205 colon = test system: COLO 205 colon
A498 renal = test system: A498 renal
SW-620 colon = test system: SW-620 colon
MDA-MB-435 = test system: MDA-MB-435
KM12 colon = test system: KM12 colon
NCI-H522 lung = test system: NCI-H522 lung

Q: CC1OC(OC2C(OC(=O)[C@]34CCC(C)(C)C[C@H]3C3=CC[C@@H]5[C@@]6(C)CC[C@H](OC7OC(CO)C(O)C(O)C7OC7OC(CO)C(O)C(O)C7O)C(C)(C)[C@@H]6CC[C@@]5(C)[C@]3(C)CC4)OCC(O)C2O)C(O)C(O)C1OC1OCC(O)C(O)C1O (stereo partly drawn) was tested. Which TGI (IGROV1 ovarian) did it give?
A: 44.9 µM

Q: And the TGI (UACC-62 melanoma)?
A: 33.1 µM

Q: What about the TGI (SF-295 CNS) of the same compound?
A: 25.7 µM

Q: What about the TGI (U251 CNS) of the same compound?
A: 29.2 µM

Q: What about the TGI (HCT-15 colon) of the same compound?
A: 32.1 µM

Q: What about the TGI (OVCAR-3 ovarian) of the same compound?
A: > 100 µM

Q: What about the TGI (NCI-H23 lung) of the same compound?
A: 24.5 µM

Q: What about the TGI (SF-268 CNS) of the same compound?
A: 21.4 µM

Q: And the TGI (M14 melanoma)?
A: 16.7 µM

Q: And the TGI (UACC-257 melanoma)?
A: 9.17 µM

Q: And the TGI (MALME-3M melanoma)?
A: 12.6 µM

Q: What about the TGI (MOLT-4 leukemia) of the same compound?
A: 46.3 µM

Q: And the TGI (RXF 393 renal)?
A: 25.4 µM

Q: What about the TGI (MCF7 breast) of the same compound?
A: 29.3 µM

Q: What about the TGI (TK-10 renal) of the same compound?
A: 21.7 µM

Q: And the TGI (MDA-MB-231 breast)?
A: 22.2 µM

Q: And the TGI (T-47D breast)?
A: 42.3 µM

Q: What about the TGI (OVCAR-4 ovarian) of the same compound?
A: 29.5 µM

Q: What about the TGI (CAKI-1 renal) of the same compound?
A: 18.3 µM

Q: What about the TGI (HOP-92 NSCLC) of the same compound?
A: 20.4 µM

Q: And the TGI (SK-MEL-5 melanoma)?
A: 28 µM

Q: And the TGI (SK-OV-3 ovarian)?
A: 31.9 µM

Q: What about the TGI (786-0 renal) of the same compound?
A: 24 µM

Q: What about the TGI (NCI/ADR-RES ovarian) of the same compound?
A: 29.1 µM

Q: And the TGI (BT-549 breast)?
A: 23.7 µM

Q: What about the TGI (NCI-H226 lung) of the same compound?
A: 26.2 µM

Q: What about the TGI (HT29 colon) of the same compound?
A: 19.8 µM

Q: And the TGI (OVCAR-5 ovarian)?
A: 21.7 µM

Q: And the TGI (RPMI-8226 leukemia)?
A: 31.6 µM

Q: What about the TGI (OVCAR-8 ovarian) of the same compound?
A: 38.9 µM

Q: What about the TGI (PC-3 prostate) of the same compound?
A: 25.8 µM

Q: And the TGI (SK-MEL-28 melanoma)?
A: 6.04 µM

Q: What about the TGI (SK-MEL-2 melanoma) of the same compound?
A: 17.2 µM

Q: What about the TGI (A549 NSCLC) of the same compound?
A: 19.2 µM

Q: What about the TGI (HCC-2998 colon) of the same compound?
A: 4.79 µM

Q: What about the TGI (ACHN renal) of the same compound?
A: 24.5 µM

Q: What about the TGI (SNB-19 CNS) of the same compound?
A: 28.9 µM

Q: What about the TGI (DU-145 prostate) of the same compound?
A: 24.8 µM

Q: What about the TGI (HS 578T breast) of the same compound?
A: 40.2 µM

Q: And the TGI (HCT-116 colon)?
A: 44.8 µM

Q: What about the TGI (SNB-75 CNS) of the same compound?
A: 31 µM

Q: What about the TGI (NCI-H460 lung) of the same compound?
A: > 67.4 µM

Q: What about the TGI (SN12C renal) of the same compound?
A: 9.27 µM

Q: What about the TGI (UO-31 renal) of the same compound?
A: 6.17 µM

Q: And the TGI (HOP-62 NSCLC)?
A: 30.8 µM

Q: What about the TGI (HL-60(TB) leukemia) of the same compound?
A: 15.1 µM

Q: What about the TGI (K-562 leukemia) of the same compound?
A: 27.6 µM

Q: And the TGI (SR leukemia)?
A: 23.8 µM

Q: And the TGI (EKVX NSCLC)?
A: 18.6 µM

Q: And the TGI (LOX IMVI melanoma)?
A: 37.7 µM

Q: What about the TGI (CCRF-CEM leukemia) of the same compound?
A: 42.3 µM

Q: And the TGI (SF-539 CNS)?
A: > 100 µM

Q: And the TGI (COLO 205 colon)?
A: 3.28 µM

Q: What about the TGI (A498 renal) of the same compound?
A: 6.06 µM

Q: What about the TGI (SW-620 colon) of the same compound?
A: 39.4 µM

Q: And the TGI (MDA-MB-435)?
A: 7.34 µM

Q: What about the TGI (KM12 colon) of the same compound?
A: 21.8 µM

Q: And the TGI (NCI-H522 lung)?
A: 12.1 µM

From PubChem BioAssay (NCI)
